US7452505B2, “Method for analyzing blood test sample and dry analytical element and analytical kit utilizing the method” (Fujifilm Corporation, priority 2002, dated 2008)

These compounds were tested on blood platelet-rich plasma (assay: Evaluation of LDH activity of blood platelet-rich plasma samples with surfactant (JSCC transferable method)). Details: sample with 0.6% of surfactant, sample without surfactant taken as 100; 37° C.
Type: cell-based, human
Source text: (2) Evaluation of LDH Activity
In Table 2, “LDH activity” means the activity of the test sample with 0.6% of surfactant, assuming that that of the test sample without surfactant to be 100.

First: sodium α-olefin sufonate [NIKKOL OS-14]
Second: C[C@H](CCC(=O)O)[C@H]1CC[C@H]2[C@@H]3CC[C@@H]4C[C@H](O)CC[C@]4(C)[C@H]3C[C@H](O)[C@]12C [deoxycholic acid, reference compound]
The “LDH Activity” value of the first is higher: 212 for the first, 199 for the second.

Compared with “POE (6) perfluoroalkyl ethoxylate [Example F-1405]”, POE (10) octylether [Nissan Nonion] is higher in “LDH Activity” value: 102 for the first, 694 for the second.

Compared with POE (5) oleylether [EMALEX 505], POE (12) oleylether [EMALEX 512] is higher in “LDH Activity” value: 295 for the first, 307 for the second.

Compared with POE (20) oleylether [EMALEX 520], “POE (10) perfluoroalkyl [Example F-142D]” is lower in “LDH Activity” value: 297 for the first, 104 for the second.
